Positions of bridges follow the written chain, without caps; N, C: chain ends. Residues, ends and D or L forms follow the SMILES beside them.
Assay: The compound was tested for inhibition of streptavidin binding to the TentaGel-bound Ac-HPQFG peptide

| Compound | IC50 |
| --- | --- |
| CC[C@H](C)[C@H](NC(=O)[C@H]1CSSC[C@H](NC(=O)[C@H](CCC(=O)O)NC(=O)[C@H](C)N)C(=O)N[C@@H](Cc2c[nH]cn2)C(=O)N2CCC[C@H]2C(=O)N[C@@H](CCC(N)=O)C(=O)NCC(=O)N2CCC[C@H]2C(=O)N2CCC[C@H]2C(=O)N1)C(=O)N[C@@H](CCC(=O)O)C(=O)NCC(=O)N[C@@H](CCCN=C(N)N)C(=O)N[C@@H](CCCCN)C(N)=O | 0.73 µM |
| C[C@@H]1NC(=O)CNC(=O)[C@H](Cc2ccccc2)NC(=O)[C@H](CCC(N)=O)NC(=O)[C@@H]2CCCN2C(=O)[C@H](Cc2c[nH]cn2)NC(=O)[C@H](C)NC(=O)CC[C@@H](C(=O)N[C@@H](CCCCN)C(N)=O)NC1=O (AHPQFGAEK-NH2; lactam N-8) | 19 µM |
| C[C@@H]1NC(=O)CC[C@@H](C(=O)N[C@@H](CCCCN)C(N)=O)NC(=O)[C@H](C)NC(=O)[C@@H]2CCCN2C(=O)[C@H](Cc2ccccc2)NC(=O)[C@H](CCC(N)=O)NC(=O)[C@@H]2CCCN2C(=O)[C@H](Cc2c[nH]cn2)NC1=O (AHPQFPAEK-NH2; lactam N-8) | 0.128 µM |
| C[C@@H]1NC(=O)CC[C@@H](C(=O)N[C@@H](CCCCN)C(N)=O)NC(=O)[C@H](C)NC(=O)[C@H](Cc2ccccc2)NC(=O)[C@H](Cc2c[nH]cn2)NC(=O)CNC(=O)[C@H](Cc2ccc(O)cc2)NC(=O)[C@H](CCC(N)=O)NC1=O (AQYGHFAEK-NH2; lactam N-8) | > 5000 µM |
| Ac-AHPQFGAEK-NH2 | 204 µM |
| Ac-AHPQFPAEK-NH2 | 136 µM |

Reference: ChEMBL document CHEMBL1130947, “Tight-binding streptavidin ligands from a cyclic peptide library” (Bioorg Med Chem Lett, 1998)
